Results on ten molecules are retold here after paper PMC5526615, “Phenotypic, chemical and functional characterization of cyclic nucleotide phosphodiesterase 4 (PDE4) as a potential anthelmintic drug target” (PLoS Neglected Tropical Diseases, 2017).

Several values for one entry are separate records, joined by “and”; a condition that tells them apart may be missing. Equal entries are not always repeated. Where two headings read alike, the source gives them in different places.

One test has as its system adult S. mansoni. Briefly: Wormassay adult worm motility. Format: cell-based. The note with it: Schistosoma mansoni, 1 h, read-out: Adult motility (-fold increase vs. DMSO controls). Here is the method: Adult schistosome screens were performed in 24-well plates (Corning Inc., cat. # 3544) using five worm pairs per well in a final volume of 2 ml of the above Basch medium. Compound was added in a volume of 1 μl DMSO such that the final concentration was 10 μM. Incubations were maintained for 3 days at 37°C under 5% CO2.
Parasite responses to chemical insult were adjudicated visually every 24 h (also at the 1 h time point for adults) using an inverted microscope and employed a constrained nomenclature of phenotype descriptors (e.g., rounding, degeneration, overactivity and slowed motility) as described. For adult parasites, in addition to observation-based annotations, we employed Wormassay to measure worm motility. Briefly, Wormassay comprises a commodity digital movie camera connected to an Apple personal computer that operates an open source software application to automatically process multiple wells (in 6-, 12- or 24-well plate formats). The application detects worm-induced changes in the occupation and vacancy of pixels between frames (outputted as an average ± S.D.). Worm motion was quantified using the “Consensus Voting Luminance Difference” option.

Test [1] deals with WT C. elegans (N2 Bristol). Nature of the test: C. elegans motility assay (body bends), wild type. It counts as cell-based, Caenorhabditis elegans. As to conditions: 100 μM, 16 h. Here is the method:
Compounds were directly added onto the OP50 food source at a 100 μM final concentration or the equivalent 0.2% DMSO as control. Previously synchronized early L4 stage larvae were cultivated on NGM plates with OP50 and compounds at 20°C for 16 h. For each experimental condition and transgenic line, motility was measured for 10–20 animals. The animals were washed twice in S basal buffer, transferred onto a new NGM plate in the absence of bacteria. After a brief period of recovery from this manipulation, locomotion was measured by counting the number of body bends in 30 s intervals under a stereoscope.

In another test the target is T1, huPDE4B2 (Homo sapiens, UniProt Q07343).
T1 construct: performed using the catalytic domains of (A) huPDE4B2 (NP_001032416.1); purchased Proteros Biostructures, GmbH, Martinsried, Germany
Nature of the test: PDE4 inhibition assay, huPDE4B2 catalytic domain ([3H]-cAMP hydrolysis). It counts as biochemical. As to conditions: Anacor's in-house data, mean ± SD (number of assays) or two single assay values, read-out: Human PDE4B2 IC50.

A further test concerns the target SmPDE4A (Schistosoma mansoni, UniProt A0A5K4ENE3). Nature of the test: biochemical. The protocol: Assays were performed in triplicate, and IC50 values were determined by non-linear regression analysis using the four-parameter logistic equation (Prism GraphPad version. 6.03).
Assay of PDE4 enzymatic activity was as described: huPDE4B2 was purchased from Proteros Biostructures, GmbH, Martinsried, Germany. […] The precipitate was collected by filtration onto Multi-Screen HTS FB plates (Millipore, Billerica, MA), washed and then dried for quantitation of radioactivity. For tests with PDE4 inhibitors, fifty percent inhibitory concentration (IC50) values were calculated based on a four-parameter logistic equation: the means and number of replicates are reported in Fig 4.

Test [2] has as its system pde4(ce268);smpde4a(a) and pde4(ce268);smpde4a(b) transgenic C. elegans. Nature of the test: C. elegans motility assay (body bends), transgenic lines expressing smpde4a. Format: cell-based, Caenorhabditis elegans. As to conditions: 100 μM, 16 h. The protocol: To generate C. elegans that carry the SmPDE4A transgene, the plasmids described above were purified and microinjected into the gonads of both WT (N2) and pde4(ce268) mutant strains at a concentration of 50 ng/μl. The injected worms (P0) were transferred to individual freshly seeded bacteria plates and allowed to reproduce. F1 progeny were screened for evidence of transgene expression based on the GFP marker. Each transgenic F1 was then singled onto a new plate. This process was repeated until lines that stably transmit the transgene were established in WT or pde(ce268) animal backgrounds. To verify the consistency of GFP expression in the transgenic lines, 10–20 transgenic animals from each line were examined using a Zeiss Axioplan II stereoscope equipped with a FITC/GFP filter (emission 500–515 nm).
Compounds were directly added onto the OP50 food source at a 100 μM final concentration or the equivalent 0.2% DMSO as control. Previously synchronized early L4 stage larvae were cultivated on NGM plates with OP50 and compounds at 20°C for 16 h. For each experimental condition and transgenic line, motility was measured for 10–20 animals. […] After a brief period of recovery from this manipulation, locomotion was measured by counting the number of body bends in 30 s intervals under a stereoscope.

The next test relates to huPDE4A. The note with it: huPDE4A ref 96; cited from earlier work.
For another test, the system named is huPDE4D. The note with it: huPDE4D ref 96; cited from earlier work.
Another test has as its system huPDE4B. The note with it: huPDE4B ref 96; cited from earlier work.
The mark [3] stands for this setting: recombinant catalytic domain, mean ± SD (number of assays) or two single assay values, read-out: SmPDE4A IC50.
Setting [4] is: SmPDE4A IC50, recombinant catalytic domain, mean ± SD (number of assays) or two single assay values.

T1 sequence (Q07343 324-659): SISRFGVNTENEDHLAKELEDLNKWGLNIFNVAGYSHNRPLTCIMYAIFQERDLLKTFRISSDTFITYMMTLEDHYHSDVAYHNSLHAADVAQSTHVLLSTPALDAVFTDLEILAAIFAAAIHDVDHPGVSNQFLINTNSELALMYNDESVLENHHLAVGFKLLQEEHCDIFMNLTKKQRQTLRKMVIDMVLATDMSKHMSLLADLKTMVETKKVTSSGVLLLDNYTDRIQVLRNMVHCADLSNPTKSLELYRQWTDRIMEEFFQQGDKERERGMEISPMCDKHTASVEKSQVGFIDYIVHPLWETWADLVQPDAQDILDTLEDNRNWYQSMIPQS
Sequence of SmPDE4A (A0A5K4ENE3 entry or part of it): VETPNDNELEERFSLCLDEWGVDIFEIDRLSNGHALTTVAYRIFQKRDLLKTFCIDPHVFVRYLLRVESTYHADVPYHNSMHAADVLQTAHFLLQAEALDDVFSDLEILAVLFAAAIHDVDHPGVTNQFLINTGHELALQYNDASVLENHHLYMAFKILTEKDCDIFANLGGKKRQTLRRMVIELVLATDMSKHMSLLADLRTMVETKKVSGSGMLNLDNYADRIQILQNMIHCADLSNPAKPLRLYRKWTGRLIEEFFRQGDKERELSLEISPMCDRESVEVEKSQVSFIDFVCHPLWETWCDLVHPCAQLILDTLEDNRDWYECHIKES
Procedure for huPDE4B2: Assays with each inhibitor were performed using the catalytic domains of (A) huPDE4B2 (NP_001032416.1) and (B) SmPDE4A (Smp_134140).
Assay of PDE4 enzymatic activity was as described [96]: huPDE4B2 was purchased from Proteros Biostructures, GmbH, Martinsried, Germany. […] The precipitate was collected by filtration onto Multi-Screen HTS FB plates (Millipore, Billerica, MA), washed and then dried for quantitation of radioactivity.

In the case of `CC(=O)CCCOc1nc(Oc2cc(F)c3c(c2)COB3O)c(Cl)cc1C#N` [Compound 1], in the test with adult S. mansoni (Wormassay, 10 μM after 1 h), the fold induction at 10 µM is 9.9.

`CC(=O)CCCOc1nc(Oc2ccc3c(c2)COB3O)c(Cl)cc1C#N` [Compound 2]: the fold induction at 10 µM in the test on adult S. mansoni (Wormassay, 10 μM after 1 h) amounted to 7.9. Moreover, the “motility relative to the DMSO control” value in test [1] is listed as “increased motility”.

Broadly, the IC50 is the concentration at which inhibition is half-maximal. For `CN(C)C(=O)CCCOc1nc(Oc2ccc3c(c2)COB3O)ccc1C#N` [Compound 3], the fold induction at 10 µM in the test on adult S. mansoni (Wormassay, 10 μM after 1 h) came to 7.1. In addition, the IC50 at huPDE4B2 amounted to 30 ± 26.7 nM; at SmPDE4A (setting [3]) it was 14.7 ± 6.4 nM.

For `CC(C)OCCOc1nc(Oc2ccc3c(c2)COB3O)ccc1C#N` [Compound 4], the fold induction at 10 µM with adult S. mansoni (Wormassay, 10 μM after 1 h) amounted to 5.7. In test [1], the “motility relative to the DMSO control” value is “did not”. For the same molecule, the IC50 turned out to be 3.8 ± 2.7 nM on huPDE4B2 and 12 ± 6.2 nM on SmPDE4A (setting [3]).

As for `N#Cc1ccc(Oc2ccc3c(c2)COB3O)cc1C(F)(F)F` [Compound 5], the fold induction at 10 µM with adult S. mansoni was 3.9. For the same molecule, the IC50 on huPDE4B2 is 68.9 nM and 22.1 nM; on SmPDE4A (setting [4]), 47 ± 27.4 nM.

Regarding `CC(C)S(=O)(=O)c1ccc(Oc2ccc3c(c2)COB3O)cc1` [Compound 6], in the test on adult S. mansoni (Wormassay, 10 μM after 1 h), the fold induction at 10 µM amounted to 1.5. The 50% inhibitory concentration (IC50) at huPDE4B2 was 43.6 nM and 65 nM; at SmPDE4A (setting [3]) it was 415 nM.

As for `N#Cc1ccc(Oc2ccc3c(c2)COB3O)cc1O` [Compound 7], the fold induction at 10 µM with adult S. mansoni (Wormassay, 10 μM after 1 h) was 1.1. Further, the IC50 at huPDE4B2 is 19.3 nM and 32.4 nM; on SmPDE4A (setting [3]) it was 123 nM.

For `O=C(Nc1c(Cl)cncc1Cl)c1ccc(OC(F)F)c(OCC2CC2)c1` [Roflumilast, roflumilast, reference compound], at SmPDE4A (setting [4]), the IC50 is 11.3 nM and 18 nM and 11 nM.

Regarding `COc1ccc(C2CNC(=O)C2)cc1OC1CCCC1` (stereo not shown) [Rolipram, rolipram, reference compound], the “motility of mutant lines carrying the smpde4a transgene” value in test [2] is recorded as “increased motility significantly”. The IC50 on SmPDE4A (recombinant catalytic domain, read-out: SmPDE4A IC50) was greater than 10000 nM.

Broadly, the Km is the concentration of substrate that gives half-maximal velocity. Take `Nc1ncnc2c1ncn2[C@@H]1O[C@@H]2COP(=O)(O)O[C@H]2[C@H]1O` [cAMP, cyclic adenosine monophosphate]: the Km in the test with huPDE4A is 980 nM; in the test with huPDE4D it was 7.81 µM; with huPDE4B, 2250 nM.
